Test results reported in patent US9096875B2 (Montana State University, priority 2010, dated 2015).
Values joined by “and” are separate entries in the source; they are usually repeats but may differ in a detail not shown here. Equal values may be shown once. Read-outs that look alike come from different tables or passages of the source.

Assays:
Scenedesmus WC-1 = details: for total Nile Red fluorescence reached: began to increase at 5 d; for Dry Weight (DCW) / Final Cell Density / Final Total Nile Red Fluorescence / Final Specific Nile Red Intensity Cell-1: WC-1, 5% CO2 → Air; for Dry Weight (DCW) / Final Cell Density / Final Total Nile Red Fluorescence: n = 3; for Final Specific Nile Red Intensity Cell-1: fluorescence signal/cell density × 10,000
Method: Cultures were grown with 5% CO2 until nitrate depletion was imminent.
(§1) Scenedesmus sp. strain WC-1 (WC-1) was isolated and confirmed unialgal as previously described (Gardner et al. 2010). WC-1 was cultured on Bold's basal medium with pH adjusted to 8.7 with KOH previous to autoclaving (Nichols and Bold 1965). Phaeodactylum tricornutum strain Pt-1 (CCMP 2561) (Pt-1) was acquired from The Provasoli-Guillard National Center for Culture of Marine Phytoplankton (CCMP). Pt-1 was cultured on ASP II medium and 50 mM Tris buffer (Sigma-Aldrich, St. Louis Mo.), pKa 7.8 (Provasoli et al. 1957). Both organisms were checked for bacterial contamination by inoculation into respective medium supplemented with 0.05% yeast extract and 0.05% glucose and incubated in the dark. Experiments were conducted in triplicate in batch culture using 70 mm×500 mm glass tubes containing 1 L media submersed in a water bath to control temperature. Rubber stoppers, containing ports for aeration and sampling, were used to seal the tubes. Temperature was maintained at 24° C. and 20° C., ±1° C., for WC-1 and Pt-1, respectively. Light (400 μmoles m^−2s^−1) was maintained on a 14:10 light:dark cycle by a T5 light bank. Aeration (400 mL min^−1) was supplied by humidified compressed air with and without 5% CO2 (v/v) and controlled using individual rotameters on each bioreactor (Cole-Parmer, Vernon Hills Ill.).
(§2) Cell concentrations were determined using an optical hemacytometer with a minimum of 400 cells counted for statistical reliability. Light micrographs and Nile Red fluorescence images were taken using a transmitted/epifluorescence light microscope (Nikon Eclipse E800) with an Infinity 2 color camera.
Medium pH was measured on samples using a standard bench top pH meter. Nitrate in Bolds basal medium was measured by ion chromatography (IC) using an IonPac AS9-HC Anion-Exchange Column (Dionex) with a 9.0 mM sodium carbonate buffer set at a flow rate of 1.0 mL min^−1. Detection was performed using a CD20 conductivity detector (Dionex) at 21° C., and IC data was analyzed on Dionex PeakNet 5.2 software. Nitrate in ASP II medium was measured using a colorimetric assay based on the reaction of Czechrome NAS reagent (Polysciences Inc., Warrington Pa.) with nitrate ions. In brief, 1 mL of culture was centrifuged at 16,000 g for 15 minutes. The supernatant liquid was then collected for nitrate quantification. 0.1 mL of sample was gently mixed with 1 mL of reagent solution prepared as described by the manufacturer (Polysciences Inc., Warrington Pa.), and incubated 20 minutes at room temperature. The absorbance was read at 570 nm, and nitrate concentration of the sample was calculated using a nitrate standard curve.
(§3) Cellular TAG accumulation was estimated using the Nile Red (9-diethylamino-5H-benzo(α)phenoxazine-5-one) (Sigma-Aldrich, St. Louis Mo.) fluorescence method (Cooksey et al. 1987). TAG accumulation over time was measured by removing 1 mL aliquots from cultures and assayed directly with Nile Red (4 μL from […] in acetone) or by diluting with 4 mL ultrapure H2O or salt water for WC-1 and Pt-1, respectively, before assaying directly with Nile Red (20 μL from […] in acetone). To maintain linearity of the Nile Red assay, dilution was required when population counts exceeded 1×10^7 cell mL^−1 and 3×10^6 cell mL^−1 for WC-1 and Pt-1, respectively. Total Nile Red fluorescence was quantified on a microplate reader (Bio-Tek, Winooski, Vt.) utilizing 480/580 nm excitation/emission filters.

[1] = tested on: Phaeodactylum tricornutum Pt-1
Method: The diatom was cultured in ASP II medium, with or without adding NaHCO3 under 14:10 L:D cycle at […] A non-limiting example of ASP II medium is shown below:
as §1, §2
as §3, with “filters. […] To minimize fluorescence spillover, black walled 96-well plates were loaded with 200 μL of sample. Unstained samples were used for background medium and cellular autofluorescence correction. […]” for “filters.”

Chlorophyta sp. EN-2 = details: 50 mM NaHCO3 prior to nitrate depletion
Method: The addition of 50 mM NaHCO3 prior to nitrate depletion was tested on Chlorophyta sp. EN-2.

diatom RGd-1 = details: bicarbonate spike at 7.4 d, within 2-3 d of the spike, ambient air, 14:10 light-dark
Description: RGd-1 was obtained from Yellowstone National Park under Permit No. YELL-2009-SCI-5480. These cultures were illuminated with 14:10 light-dark cycling with ambient air aeration.

Scenedesmus sp. 131 = details: 50 mM NaHCO3 prior to nitrate depletion
Method: (§4) The addition of 50 mM NaHCO3 prior to nitrate depletion was tested on Chlorophytes Scenedesmus sp.

Kirchneriella sp. 92 = details: 50 mM NaHCO3 prior to nitrate depletion
Method: as §4

Coelastrella sp. PC-3 = tested on: Coelastrella sp. PC-3
Method: The addition of 50 mM NaHCO3 prior to nitrate depletion was tested on Coelastrella sp. PC-3.

[2] = HCO3 addition at 3.7 d (pre-nitrate depletion), harvest 8.0 d
[3] = HCO3 addition at 6.4 d (post-nitrate depletion), harvest 12.0 d

Structure (SMILES): O=C([O-])[O-].[Na+].[Na+] [Na2CO3, sodium carbonate, reference compound]
- TAG accumulation (Scenedesmus WC-1; all cases of Na2CO3 addition (individual, mix, buffered), near nitrate depletion): did not accumulate elevated levels of TAG

Structure (SMILES): O=C([O-])O.[Na+] [bicarbonate, sodium bicarbonate]
- Dry Weight (DCW) [1]: 0.1 ± 0.0 g/L
- Final Cell Density [1]: 0.65 ± 0.01 ×10^7 cells mL^−1 and 1.02 ± 0.05 ×10^7 cells mL^−1
- effect on cell replication [1]: cell replication was not inhibited
- lipid production (Nile Red fluorescence) [1]: stimulated more lipid production
- TAG accumulation rate (Chlorophyta sp. EN-2): observable increase
- TAG per cell level (Nile Red specific fluorescence) (Chlorophyta sp. EN-2): observable increase
- TAG induction (Scenedesmus WC-1; 25 mM NaHCO3 with 25 mM CAPS buffer (pKa 10.3), near nitrate depletion): almost identical to the unbuffered additions
- period of TAG accumulation (Scenedesmus WC-1; 50 mM bicarbonate added at 3.7 d (pre-nitrate depletion)): 5 to 8 days
- Nile Red fluorescence after decrease to baseline (Scenedesmus WC-1; 50 mM bicarbonate added at 6.4 d, post-nitrate depletion): 450 units
- Nile Red fluorescence / TAG accumulation response (Scenedesmus WC-1; 50 mM bicarbonate added post-nitrate depletion (stationary phase), aeration adjusted to ambient air, listed as NaHCO3): complete loss of cellular TAG accumulation
- TAG accumulation (Scenedesmus WC-1; 25 and 50 mM added to unbuffered medium near nitrate depletion (FIG. 15)): induce similar levels of TAG
- total Nile Red fluorescence reached (Scenedesmus WC-1; Example 4: 50 mM bicarbonate spike at 3.7 d, value 4 days later): 20,000 units
- total Nile Red fluorescence reached (Scenedesmus WC-1; Example 5: 50 mM bicarbonate addition at 3.7 d, value 3 days later): 33,500 units
- Dry Weight (DCW) (Scenedesmus WC-1; [2]): 1.1 ± 0.1 g/L
- Final Cell Density (Scenedesmus WC-1; [2]): 1.34 ± 0.15 ×10^7 cells mL^−1
- Final Total Nile Red Fluorescence (Scenedesmus WC-1; [2]): 33.5 ± 6.3 ×10^3 units
- Final Specific Nile Red Intensity Cell-1 (Scenedesmus WC-1; [2]): 24.8 ± 2.2
- Dry Weight (DCW) (Scenedesmus WC-1; [3]): 2.1 ± 0.0 g/L
- Final Cell Density (Scenedesmus WC-1; [3]): 5.18 ± 0.41 ×10^7 cells mL^−1
- Final Total Nile Red Fluorescence (Scenedesmus WC-1; [3]): 0.3 ± 0.3 ×10^3 units
- Final Specific Nile Red Intensity Cell-1 (Scenedesmus WC-1; [3]): 0.1 ± 0.1
- minimal concentration range needed to stop cellular replication (Scenedesmus WC-1; addition just prior to medium nitrate depletion): 10 to 15 mM
- culture time at which maximum total Nile Red fluorescence was reached (Scenedesmus WC-1; bicarbonate supplemented culture, instead of 16-18 d in ambient aerated culture): 8 days
- cell morphology by microscope (Scenedesmus WC-1; less than 10 mM NaHCO3 addition): did not indicate cell cycle halting characteristics
- rate of TAG accumulation (Scenedesmus WC-1; when bicarbonate was added (50 mM, near nitrate depletion), versus ambient aerated culture): twice as fast
- time to reach maximum Nile Red fluorescence signal (Scenedesmus WC-1; with bicarbonate spike, compared with 8-10 d under ambient air aeration with no spike): 3 to 4 days
- total Nile Red fluorescence increase over the no spike control (diatom RGd-1): 10 fold
- TAG accumulation rate (Scenedesmus sp. 131): increase in TAG accumulation rate
- TAG accumulation rate (Kirchneriella sp. 92): decrease in TAG accumulation rate
- TAG accumulation measured with Nile Red fluorescence (Coelastrella sp. PC-3): no observable increase in TAG accumulation
- effect on cellular replication (Coelastrella sp. PC-3): cellular replication ceased
